Data as given in patent US20070202486A1, “Method Of Assaying Substance Capable Of Changing Mitochondrial Membrane Potential” (Mitsubishi Pharma Corporation, priority 2004, published 2007).

Tests used:
Girardi cells = experiment: Mitochondrial depolarization inhibition, JC-1 fluorescence ratio, ouabain/KCl-induced depolarization (Example 1); assay type: cell-based, human; details: 1 mM ouabain + 60 mM KCl, 2 hr
Method: First of all, Girardi cells are seeded on a plate usable for an optical measurement method, and cultured in a normal medium (MEM medium supplemented with additives, such as non-essential amino acid, fetal bovine serum and the like). Then, the medium is changed to a normal medium containing JC-1 to allow incorporation of JC-1 into the cell, the medium is changed to a normal medium containing a test substance, and the cells are cultured. Then, a depolarization-inducing medium is used (normal medium containing ouabain and KCl; in the evaluation method of the present invention, ouabain is used at a concentration of 0.1 μM-3 mM, and KCl is used at a concentration of 20 mM-90 mM). The test substance may be added along with or after addition of a depolarization-inducing medium following incorporation of JC-1 into the cell. After addition of the depolarization-inducing medium, the culture time can be 1-24 hr. Thereafter, the fluorescence of JC-1 monomer and the fluorescence of J-aggregate are measured on a fluorescence plate reader (capable of excitation at around 488-490 nm, which is the excitation wavelength of JC-1, and capable of fluorescence detection around 527 nm, which is the fluorescence wavelength peak of JC-1 monomer and around 590-600 nm, which is the fluorescence wavelength of J-aggregate), and the fluorescence intensity ratio (monomer fluorescence intensity/J-aggregate fluorescence intensity) is calculated.
Girardi cells suspended in a normal medium [(MEM (GIBCO 11095-098) supplemented with 1% non-essential amino acid (MEM Non-Essential Amino Acids Solution 10 mM 100× GIBCO 11140-050), and 10% fetal bovine serum (BIOFLUIDS DIVISION Lot No. 302030))] were seeded to a 96-well clear bottom black plate (MATRIX MT4940) at 200 μL/well and cultured.
JC-1 (Molecular Probes T-3168, 1 mg/mL DMSO solution) was added to a phenol red-free normal medium [MEM (GIBCO 51200-038) supplemented with 1% non-essential amino acid (MEM Non-Essential Amino Acids Solution 10 mM 100× GIBCO 11140-050), 1% L-glutamine (L-Glutamine-200 mM 100×: GIBCO 25030-149) and 10% fetal bovine serum (BIOFLUIDS DIVISION: Lot No. 302030)] at 10 μL/mL, the mixture was stirred with a vortex mixer and centrifuged at 3000 rpm for 1 min and the supernatant was filtered through a syringe filter (0.22 μm, MILLIPORE). The medium in the 96-well plate was removed and the JC-1 solution was dispensed to a cell-seeded well at 50 μL/well. […]
After induction of depolarization, the plate was set on a fluorescence plate reader (TECAN, SpectraFluor) heated to 37° C., and the J-aggregate fluorescence was measured at 595 nm using an excitation wavelength of 485 nm. Then, the monomer fluorescence was measured at 535 nm using an excitation wavelength of 485 nm. […]

Griardi cells [1] = details: JC-1, flow cytometry; cited from earlier work
Griardi cells [2] = details: 3 hr low oxygen with metabolism inhibitor, then 1 hr normal medium; cited from earlier work

CC1=NS(=O)(=O)c2cc(Cl)ccc2N1 [diazoxide]
mitochondrial depolarization inhibitory action (fluorescence intensity ratio monomer/J-aggregate) (Girardi cells): mitochondrial depolarization inhibitory action

CC1(C)Oc2ccc(C#N)cc2[C@@H](N2CCCC2=O)[C@@H]1O [levcromakalim]
mitochondrial depolarization inhibitory action (fluorescence intensity ratio monomer/J-aggregate) (Girardi cells): did not prevent mitochondrial depolarization

N#CC(C#N)=NNc1cccc(Cl)c1 [CCCP]
mitochondrial membrane potential (red fluorescence intensity of JC-1) (Griardi cells [1]): decreased fluorescence intensity and depolarization of mitochondria were observed

Nc1ncnc2c1ncn2[C@@H]1O[C@H](CO)[C@@H](O)[C@H]1O [adenosine]
apoptosis (Griardi cells [2]): strongly inhibited apoptosis

CC1(C)Oc2ccc(C#N)cc2[C@H](N(Cc2ncc[nH]2)c2ccc(Cl)cc2)[C@H]1O [BMS-191095]
mitochondrial depolarization inhibitory action (fluorescence intensity ratio monomer/J-aggregate) (Girardi cells): mitochondrial depolarization inhibitory action

COc1ccc([C@@H]2Sc3ccccc3N(CCN(C)C)C(=O)[C@@H]2OC(C)=O)cc1.Cl [diltiazem, diltiazem hydrochloride]
mitochondrial depolarization inhibitory action (fluorescence intensity ratio monomer/J-aggregate) (Girardi cells): did not prevent mitochondrial depolarization
